# Reference: patent US20180078569A1, “KITS FOR INDENTIFYING AND TREATING SUBJECTS RESISTANT TO ACETYL SALICYLIC ACID” (priority 2006, published 2018)
# Legend:
# [1] = molecular target: T1, COX-1 (Homo sapiens, UniProt P23219); test: Thrombin-induced thromboxane production of aspirinated platelets (TxB2 ELISA); format: cell-based; conditions: for thrombin-induced production of thromboxane: aspirinated platelets, with or without inhibitor added prior to ASA; for reduction of thromboxane production: inhibitor added prior to ASA, versus aspirinated platelets not pretreated
# T1 construct: prostaglandin H synthase, an enzyme present in platelets and commonly defined as COX-1; endogenous in cells; host or cells: washed platelets from donors' venous blood (healthy volunteers; patients 5 days after aorto-coronary bypass)
# Experimental: The resuspended platelets in the Tyrode's buffer at the concentration of 2.5×10^8 cells/ml were treated with aspirin (50 microM) at 10° C. for 15 min and then kept at 37° C. or at 4° C. for 15 min.
# MRP4 inhibitors were used such as Dipyridamole and MK571 ((E)-3-[[[3-[2-(7-chloro-2-quinolinyl)ethenyl]phenyl]-[[3-dimethylamino)-3-oxo-propyl]-thio]-methyl]thio]-propanoic acid), both at 100 microM and incubated 30 min at RT before aspirin addition.
# (§1) The evaluation of the biologic efficacy of aspirin in platelets was made by studying Thromboxane A2 production, a specific marker of the cyclooxygenase pathway in platelets. Aspirin and/or Dipyridamole treated platelets (see above) were activated with thrombin 1 U/ml for 1 h at 37° C., and then centrifugated 1 min at 8.000 g. Thromboxane B2, a stable metabolite of TXA2, was measured in the supernatant through a commercial ELISA kit (Cayman, chemicals Co).
# [2] = molecular target: T2, MRP4-mediated transport (Homo sapiens, UniProt O15439); test: Cytosolic concentrations of ASA and salicylic acid in platelets incubated with ASA (HPLC); format: cell-based; conditions: for cytosolic concentration of acetylsalicylic acid (ASA) / cytosolic concentration of metabolite salicylic acid: platelets pretreated with inhibitor (dipyridamole 100 microM) 10 minutes before ASA 50 microM, compared to platelets treated with solvent alone (DMSO)
# T2 construct: endogenous in cells; host or cells: washed platelets (and a dense-granule suspension made from them) from donors' venous blood
# T2 sequence (O15439 1-1325): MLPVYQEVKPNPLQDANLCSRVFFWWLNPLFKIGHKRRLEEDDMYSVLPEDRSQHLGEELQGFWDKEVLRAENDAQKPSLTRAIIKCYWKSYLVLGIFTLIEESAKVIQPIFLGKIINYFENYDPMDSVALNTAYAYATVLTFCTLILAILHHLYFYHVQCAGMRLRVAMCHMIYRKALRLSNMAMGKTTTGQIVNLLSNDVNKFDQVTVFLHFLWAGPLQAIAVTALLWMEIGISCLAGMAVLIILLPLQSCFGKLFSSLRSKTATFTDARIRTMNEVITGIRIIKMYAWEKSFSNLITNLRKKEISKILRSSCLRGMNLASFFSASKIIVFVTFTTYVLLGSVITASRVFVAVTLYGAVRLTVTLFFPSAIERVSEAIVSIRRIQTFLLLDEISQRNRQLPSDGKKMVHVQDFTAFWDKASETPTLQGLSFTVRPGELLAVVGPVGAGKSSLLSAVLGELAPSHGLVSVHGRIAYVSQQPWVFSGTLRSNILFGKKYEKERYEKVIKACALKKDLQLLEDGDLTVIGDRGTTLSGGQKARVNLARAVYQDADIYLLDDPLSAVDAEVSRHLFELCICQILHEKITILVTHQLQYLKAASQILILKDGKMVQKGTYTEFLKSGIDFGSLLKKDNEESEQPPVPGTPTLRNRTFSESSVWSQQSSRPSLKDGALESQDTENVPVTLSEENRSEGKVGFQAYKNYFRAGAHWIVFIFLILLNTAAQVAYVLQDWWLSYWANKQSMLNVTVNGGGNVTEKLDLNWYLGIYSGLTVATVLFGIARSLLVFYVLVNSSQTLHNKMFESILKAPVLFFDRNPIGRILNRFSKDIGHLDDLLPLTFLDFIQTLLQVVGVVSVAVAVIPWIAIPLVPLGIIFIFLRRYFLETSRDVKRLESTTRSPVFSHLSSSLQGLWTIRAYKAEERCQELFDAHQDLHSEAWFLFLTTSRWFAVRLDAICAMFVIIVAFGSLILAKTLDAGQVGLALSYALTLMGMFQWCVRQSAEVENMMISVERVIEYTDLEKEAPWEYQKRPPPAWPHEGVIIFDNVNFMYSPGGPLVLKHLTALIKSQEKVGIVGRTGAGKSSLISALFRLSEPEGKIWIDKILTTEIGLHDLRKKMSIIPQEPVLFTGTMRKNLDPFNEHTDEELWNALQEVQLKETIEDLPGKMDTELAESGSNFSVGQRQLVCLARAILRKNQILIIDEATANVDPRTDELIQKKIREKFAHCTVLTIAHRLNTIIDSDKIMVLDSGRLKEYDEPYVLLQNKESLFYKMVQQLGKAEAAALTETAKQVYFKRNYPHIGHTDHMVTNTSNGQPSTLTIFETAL
# Text: (§2) 1987, 9, 243-7) and a beta-counter for measuring the radioactive aspirin.
# Dipyridamole, in addition to inhibiting the transport mediated by these channels, is also an inhibitor of platelet activity, in that it increases the platelet concentrations of AMPc, inhibiting phosphodiesterase isoform V (PDE typeV).
# (§3) The PRP was then subjected to platelet count through blood cell count Celltac Auto Nihon Kohden (MEK 8118K). The platelets were then moved away from plasma through centrifugation of PRP, acidified at pH 6.5 with ACD (citric acid, sodium citrate and glucose 1/10 v/v), at 800×g for 10 min. and resuspended in Tyrode's buffer (CaCl2 0.20 g/L, KCl 0.20 g/L, […], NaCl 8.00 g/L, NaH2PO4*H2O), at pH 7.35 and charged with glucose and albumin. The preparation of a dense rich platelet granule suspension was made according to the method reported by (Fukami M H et al. J. Cell. Biol. 1978, 77, 389-99) and the degree of purity was verified through mepacrine Fluorimetric probe and the purity percentage was checked through the cytofluorimeter. If the concentration of the dense granules compared to the other organelles was lower than 80%, the suspension of platelet granules was not used for the study.
# The resuspended platelets in the Tyrode's buffer at the concentration of 2.5×10^8 cells/ml were treated with aspirin (50 microM) at 10° C. for 15 min and then kept at 37° C. or at 4° C. for 15 min. […]
# (§4) The entrapment of aspirin inside platelets or in the dense granules was measured through the method of Gaspari and Locatelli (Ther Drug Monit. 1987, 9, 243-7).
# [3] = molecular target: T1, COX-1; test: Thrombin-induced thromboxane production in platelets from bypass patients treated in vitro; format: cell-based; conditions: for thromboxane production induced by thrombin: platelets from patients subjected to aorto-coronary bypass, treated in vitro
# Experimental: patients at 5 days from an aortic-coronary-bypass.
# as §1
# [4] = molecular target: T2, MRP4-mediated transport; test: ASA concentration in platelet dense granule preparation treated with ASA and ATP; format: cell-based
# Experimental: as §2, §3
# In the rich platelet dense granule suspension, ATP and ASA were added to the preparation, then it was kept at 37° C. for 15 min so a to reduce the transpost mediated by MRP4; the suspension was pretreated either with apyrase, an ATP scavenger substance or with Dipyridamole 30 min before adding aspirin, or the treatment with aspirin was made at 4° C.
# as §4
# [5] = tested on: cardiovascular complications; conditions: daily intake 75-150 mg/day, patients who previously had coronary disease; cited from earlier work
# [6] = oral administration; cited from earlier work
# [7] = molecular target: T2, MRP4-mediated transport; test: Release of 14C-labelled ASA and of ATP from thrombin-activated platelets; format: cell-based; conditions: platelets pretreated with dipyridamole
# Experimental: Aspirin labelled with 14C (American Radiolabeled Chemicals, Inc. Saint Louis, USA) was added to the platelet suspension for 15 min at 37° C. After removing the excess of the substance marked by double centrifugation, the platelets were activated with Thrombin (0.2 U/ml) and then centrifugated. The reduction of the transport mediated by MRP4 was made through the preincubation of the platelet preparation with Dipyridamole 30 min before aspirin addition. The results are reported by evaluating the percentage of the radioactive present in the supernatant compared to the total radioactivity of the platelet preparation. ATP secretion was analyzed as a control through the luminometric method with commercial kit (Chronolog, Hevertown, Pa., USA).
# [8] = treatment of platelets with ASA at 4° C. instead of 37° C.
# [9] = pretreatment before ASA, relative to maximum obtained with ATP in external medium at 37° C.
# T1 sequence (P23219 24-599): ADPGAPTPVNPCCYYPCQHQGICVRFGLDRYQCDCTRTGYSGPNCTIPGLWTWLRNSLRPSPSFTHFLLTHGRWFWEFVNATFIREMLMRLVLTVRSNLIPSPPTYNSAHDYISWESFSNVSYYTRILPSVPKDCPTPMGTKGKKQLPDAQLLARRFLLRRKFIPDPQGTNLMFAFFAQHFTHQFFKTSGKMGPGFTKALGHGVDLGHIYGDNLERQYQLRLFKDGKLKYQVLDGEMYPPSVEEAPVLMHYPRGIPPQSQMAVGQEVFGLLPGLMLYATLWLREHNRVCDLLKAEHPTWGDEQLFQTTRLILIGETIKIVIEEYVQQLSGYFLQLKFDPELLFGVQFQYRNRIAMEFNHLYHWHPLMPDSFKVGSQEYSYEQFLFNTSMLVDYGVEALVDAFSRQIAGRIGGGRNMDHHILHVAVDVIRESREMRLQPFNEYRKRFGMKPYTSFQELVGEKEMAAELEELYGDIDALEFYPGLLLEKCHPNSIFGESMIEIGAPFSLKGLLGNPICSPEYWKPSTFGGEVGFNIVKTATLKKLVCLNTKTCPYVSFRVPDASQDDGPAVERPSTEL
Compound,thrombin-induced production of thromboxane [1] [ng/10^8 cells],thromboxane production induced by thrombin [3] [ng/10^8 cells],"ASA concentration in platelet granules [4, 9] [%]",reduction of thromboxane production [1] [%],cytosolic concentration of acetylsalicylic acid (ASA) [2] [%],cytosolic concentration of metabolite salicylic acid [2] [%],also measured
"CC(=O)Oc1ccccc1C(=O)O [ASA, acetylsalicylic acid]",343.7,1437.0±549.1,–,–,–,–,"increase of cytosolic concentration of ASA [2, 8]: 240%; increase of cytosolic concentration of salicylate [2, 8]: 160%; ASA concentration in platelet granules ([4]; incubation of ASA at 4° C., relative to maximum obtained with ATP at 37° C.): 53.6%; reduction of the risk of cardiovascular complications (myocardial infarction, cerebral infarction and vascular death) [5]: 25%; bioavailability [6]: 40-50%; half-life [6]: 15 to 20 min; plasma concentration peak registered after [6]: 30 to 40 min; platelet inhibition manifested after administration [6]: one"
apyrase,–,–,56.1,–,–,–,–
CN(C)C(=O)CCSC(SCCC(=O)O)c1cccc(/C=C/c2ccc3ccc(Cl)cc3n2)c1 (centres unmarked) [MK-571],140.22,–,–,59.2,208,202,–
"OCCN(CCO)c1nc(N2CCCCC2)c2nc(N(CCO)CCO)nc(N3CCCCC3)c2n1 [dipyridamole, 2,6-bis-(diethanolamino)-4,8-dipiperidino-(5,4-d)-pyrimidine]",142.7,499.8±247.7,41.7,58,285,293,thromboxane production with respect to platelets treated with aspirin alone ([3]; platelets from bypass patients pretreated in vitro before aspirin): 35%; release of radiolabelled ASA after activation with thrombin ([7]; thrombin 0.2 U/ml): absent; ATP released by the platelets ([7]; thrombin-activated): 1.8 ± 0.3 nmol
"Clc1cccc(Nc2nnc(-c3ccccc3)c3ccccc23)c1 [MY-5445, 1-(3-chlorophenylamino)-4-phenylphthalazine]",–,–,–,–,110,120,–
